Test results as given in patent publication US20150216903A1, “COMPOUNDS FOR IMPROVED VIRAL TRANSDUCTION” (BLUEBIRD BIO, INC., priority 2012, published 2015).

Legend:
HSCs = conditions: published data, Goessling et al., Cell Stem Cell 2011; cited from earlier work
CD34+ cells = assay: Time-course and dose-response of dmPGE2 in promoting viral transduction (GFP+ lentivirus, flow cytometry); format: cell-based, human; conditions: for percentage of cells positive for GFP: MOI 25
Method: MCD-34+ cells were thawed and pre-stimulated with SCF, TPO, FltL and IL3, then transduced with GFP+ lentivirus at a multiplicity of infection of 25. Cells were exposed to dmPGE2 during the viral transduction step (24-25 hours of culture; 24-26 hours of culture; 24-28 hours of culture; or 24-48 hours of culture) and then washed and analyzed by flow cytometry after approximately 1 week in culture. Alternatively, cells were exposed to dmPGE2 during the pre-stimulation step (22-24 hours of culture; 23-24 hours of culture).

What does the source list for `CCCCC(C)(C)[C@H](O)/C=C/[C@H]1[C@H](O)CC(=O)[C@@H]1C/C=C\CCCC(=O)O` [dmPGE2, 16,16-dimethyl PGE2]?
promotion of viral transduction of HSCs (HSCs): unable to promote viral transduction of HSCs; percentage of cells positive for GFP (CD34+ cells; dmPGE2 1 uM, Pre-Stim w/PGE2 Minus 2 Hr (22-24 hours of culture)): 25.74%; percentage of cells positive for GFP (CD34+ cells; dmPGE2 1 uM, Virus and PGE2 24 Hr (24-48 hours of culture)): 32.03%; percentage of cells positive for GFP (CD34+ cells; dmPGE2 1 uM, Virus and PGE2 Plus 1 Hr (24-25 hours of culture)): 2.94%; percentage of cells positive for GFP (CD34+ cells; dmPGE2 1 uM, Virus and PGE2 Plus 2 Hr (24-26 hours of culture)): 7.17%; percentage of cells positive for GFP (CD34+ cells; dmPGE2 1 uM, Virus and PGE2 Plus 4 Hr (24-28 hours of culture)): 21.10%; percentage of cells positive for GFP (CD34+ cells; dmPGE2 12.5 uM, Pre-Stim w/PGE2 Minus 1 Hr (23-24 hours of culture)): 22.13%; percentage of cells positive for GFP (CD34+ cells; dmPGE2 12.5 uM, Pre-Stim w/PGE2 Minus 2 Hr (22-24 hours of culture)): 30.64%; percentage of cells positive for GFP (CD34+ cells; dmPGE2 12.5 uM, Virus and PGE2 24 Hr (24-48 hours of culture)): 47.42%; percentage of cells positive for GFP (CD34+ cells; dmPGE2 12.5 uM, Virus and PGE2 Plus 1 Hr (24-25 hours of culture)): 1.97%; percentage of cells positive for GFP (CD34+ cells; dmPGE2 12.5 uM, Virus and PGE2 Plus 2 Hr (24-26 hours of culture)): 5.32%; percentage of cells positive for GFP (CD34+ cells; dmPGE2 12.5 uM, Virus and PGE2 Plus 4 Hr (24-28 hours of culture)): 28.08%; percentage of cells positive for GFP (CD34+ cells; dmPGE2 25 uM, Pre-Stim w/PGE2 Minus 1 Hr (23-24 hours of culture)): 24.05%; percentage of cells positive for GFP (CD34+ cells; dmPGE2 25 uM, Pre-Stim w/PGE2 Minus 2 Hr (22-24 hours of culture)): 31.90%; percentage of cells positive for GFP (CD34+ cells; dmPGE2 25 uM, Virus and PGE2 24 Hr (24-48 hours of culture)): 50.69%; percentage of cells positive for GFP (CD34+ cells; dmPGE2 25 uM, Virus and PGE2 Plus 1 Hr (24-25 hours of culture)): 1.76%; percentage of cells positive for GFP (CD34+ cells; dmPGE2 25 uM, Virus and PGE2 Plus 2 Hr (24-26 hours of culture)): 4.76%; percentage of cells positive for GFP (CD34+ cells; dmPGE2 25 uM, Virus and PGE2 Plus 4 Hr (24-28 hours of culture)): 27.46%; percentage of cells positive for GFP (CD34+ cells; dmPGE2 50 uM, Pre-Stim w/PGE2 Minus 1 Hr (23-24 hours of culture)): 22.98%; percentage of cells positive for GFP (CD34+ cells; dmPGE2 50 uM, Pre-Stim w/PGE2 Minus 2 Hr (22-24 hours of culture)): 31.85%; percentage of cells positive for GFP (CD34+ cells; dmPGE2 50 uM, Virus and PGE2 24 Hr (24-48 hours of culture)): 54.63%; percentage of cells positive for GFP (CD34+ cells; dmPGE2 50 uM, Virus and PGE2 Plus 1 Hr (24-25 hours of culture)): 1.85%; percentage of cells positive for GFP (CD34+ cells; dmPGE2 50 uM, Virus and PGE2 Plus 2 Hr (24-26 hours of culture)): 4.23%; percentage of cells positive for GFP (CD34+ cells; dmPGE2 50 uM, Virus and PGE2 Plus 4 Hr (24-28 hours of culture)): 27.45%; percentage of cells positive for GFP (CD34+ cells; dmPGE2 100 uM, Pre-Stim w/PGE2 Minus 1 Hr (23-24 hours of culture)): 25.14%; percentage of cells positive for GFP (CD34+ cells; dmPGE2 100 uM, Pre-Stim w/PGE2 Minus 2 Hr (22-24 hours of culture)): 34.85%; percentage of cells positive for GFP (CD34+ cells; dmPGE2 100 uM, Virus and PGE2 24 Hr (24-48 hours of culture)): 76.44%; percentage of cells positive for GFP (CD34+ cells; dmPGE2 100 uM, Virus and PGE2 Plus 1 Hr (24-25 hours of culture)): 2.48%; percentage of cells positive for GFP (CD34+ cells; dmPGE2 100 uM, Virus and PGE2 Plus 2 Hr (24-26 hours of culture)): 4.02%; percentage of cells positive for GFP (CD34+ cells; dmPGE2 100 uM, Virus and PGE2 Plus 4 Hr (24-28 hours of culture)): 21.57%; improvement of viral transduction (CD34+ cells; time windows commonly used for promoting hematopoietic stem cell activity, on the order of one to two hours): unable to improve viral transduction
